In ChEMBL document CHEMBL4340541, “Synthesis of andrographolide analogues and their neuroprotection and neurite outgrowth-promoting activities” (Bioorg Med Chem, 2019):
Activity calls are given as the source filed them. No cut-off for these calls is given here.

System: not listed separately
Experiment: Lipophilicity, log P of the compound
Type: physicochemical
Settings: octanol/water; read-out: logP
`C[C@@]1(CO)[C@H](O)CC[C@@]2(C)C3CC(C4=CCOC4=O)O[C@]3(C)CC[C@H]12` (stereo not given in full) gave a logP of 2.16.
In the case of `C=C1CC[C@@H]2[C@](C)(CO)[C@H](O)CC[C@@]2(C)[C@@H]1C/C=C1\C=COC1=O`, the logP is reported as 3.28.
In the case of `C=C1CC[C@@H]2[C@](C)(CO)[C@H](O)CC[C@@]2(C)[C@@H]1CCC1C(=O)OC[C@H]1O` (stereo not given in full), the logP is reported as 2.54.
`C=C1CC[C@@H]2[C@](C)(COC(C)=O)[C@H](OC(C)=O)CC[C@@]2(C)[C@@H]1/C=C/C1=CCOC1=O` showed a logP of 3.83.
Work on `C=C1CC[C@@H]2[C@](C)(COC(C)=O)[C@H](OC(C)=O)CC[C@@]2(C)[C@@H]1CCC1C(=O)OC[C@H]1OC(C)=O` (stereo not given in full) yielded a logP of 3.71.
`C=C1CC[C@@H]2[C@](C)(CO)[C@H](O)CC[C@@]2(C)[C@@H]1CCC1=CCOC1=O` [DEOXYANDROGRAPHOLIDE] showed a logP of 3.43.

System: BV-2
Experiment: Cytotoxicity in mouse BV2 cells assessed as reduction in cell viability
Type: cell-based
Settings: not given
For `C[C@@]1(CO)[C@H](O)CC[C@@]2(C)C3CC(C4=CCOC4=O)O[C@]3(C)CC[C@H]12` (stereo not given in full), the Activity was “Non-Toxic”.
In the case of `C=C1CC[C@@H]2[C@](C)(CO)[C@H](O)CC[C@@]2(C)[C@@H]1C/C=C1\C=COC1=O`, the Activity is reported as “Non-Toxic”.
For `C=C1CC[C@@H]2[C@](C)(CO)[C@H](O)CC[C@@]2(C)[C@@H]1CCC1C(=O)OC[C@H]1O` (stereo not given in full), the Activity was “Non-Toxic”.
With `C=C1CC[C@@H]2[C@](C)(COC(C)=O)[C@H](OC(C)=O)CC[C@@]2(C)[C@@H]1/C=C/C1=CCOC1=O` the Activity was “Non-Toxic”.
With `C=C1CC[C@@H]2[C@](C)(COC(C)=O)[C@H](OC(C)=O)CC[C@@]2(C)[C@@H]1CCC1C(=O)OC[C@H]1OC(C)=O` (stereo not given in full) the Activity was “Non-Toxic”.
With `C=C1CC[C@@H]2[C@](C)(CO)[C@H](O)CC[C@@]2(C)[C@@H]1CCC1=CCOC1=O` [DEOXYANDROGRAPHOLIDE] the Activity was “Non-Toxic”.

System: PC-12
Experiment: Neuroprotective activity against 6-OHDA -induced toxicity in rat PC12 cells assessed as increase in cell viability at 10 uM pretreated for 24 hrs followed by 6-OHDA challenge and measured after 24 hrs by MTT assay
Type: functional, cell-based
Settings: not given
With `C[C@@]1(CO)[C@H](O)CC[C@@]2(C)C3CC(C4=CCOC4=O)O[C@]3(C)CC[C@H]12` (stereo not given in full) the Activity was “Active”.

System: PC-12
Experiment: Induction of neurite outgrowth in NGF-induced rat PC12 cells assessed as neurite bearing cells at 20 uM cotreated with 20 ng/ml NGF incubated for 48 hrs by light microscopy
Type: functional
Settings: not given
With `C[C@@]1(CO)[C@H](O)CC[C@@]2(C)C3CC(C4=CCOC4=O)O[C@]3(C)CC[C@H]12` (stereo not given in full) the Activity was “inactive”.
For `C=C1CC[C@@H]2[C@](C)(CO)[C@H](O)CC[C@@]2(C)[C@@H]1C/C=C1\C=COC1=O`, the Activity was “inactive”.
For `C=C1CC[C@@H]2[C@](C)(CO)[C@H](O)CC[C@@]2(C)[C@@H]1CCC1C(=O)OC[C@H]1O` (stereo not given in full), the Activity was “inactive”.
For `C=C1CC[C@@H]2[C@](C)(COC(C)=O)[C@H](OC(C)=O)CC[C@@]2(C)[C@@H]1/C=C/C1=CCOC1=O`, the Activity was “inactive”.
With `C=C1CC[C@@H]2[C@](C)(CO)[C@H](O)CC[C@@]2(C)[C@@H]1C/C=C1/C(=O)OC[C@H]1O` [ANDROGRAPHOLIDE] the Activity was “Active”.
In the case of `C=C1CC[C@@H]2[C@](C)(COC(C)=O)[C@H](OC(C)=O)CC[C@@]2(C)[C@@H]1CCC1C(=O)OC[C@H]1OC(C)=O` (stereo not given in full), the Activity is reported as “inactive”.
With `C=C1CC[C@@H]2[C@](C)(CO)[C@H](O)CC[C@@]2(C)[C@@H]1CCC1=CCOC1=O` [DEOXYANDROGRAPHOLIDE] the Activity was “inactive”.

System: BV-2
Experiment: Antiinflammatory activity in mouse BV2 cells assessed as reduction in LPS-induced NO production at 20 uM incubated for 24 hrs by Griess method
Type: functional
Settings: not given
With `C[C@@]1(CO)[C@H](O)CC[C@@]2(C)C3CC(C4=CCOC4=O)O[C@]3(C)CC[C@H]12` (stereo not given in full) the inhibition was “inactive”.
With `C=C1CC[C@@H]2[C@](C)(CO)[C@H](O)CC[C@@]2(C)[C@@H]1C/C=C1\C=COC1=O` the inhibition was “inactive”.
For `C=C1CC[C@@H]2[C@](C)(CO)[C@H](O)CC[C@@]2(C)[C@@H]1CCC1C(=O)OC[C@H]1O` (stereo not given in full), the inhibition was “inactive”.
With `C=C1CC[C@@H]2[C@](C)(COC(C)=O)[C@H](OC(C)=O)CC[C@@]2(C)[C@@H]1/C=C/C1=CCOC1=O` the inhibition was “Active”.
For `C=C1CC[C@@H]2[C@](C)(COC(C)=O)[C@H](OC(C)=O)CC[C@@]2(C)[C@@H]1CCC1C(=O)OC[C@H]1OC(C)=O` (stereo not given in full), the inhibition was “Active”.
With `C=C1CC[C@@H]2[C@](C)(CO)[C@H](O)CC[C@@]2(C)[C@@H]1CCC1=CCOC1=O` [DEOXYANDROGRAPHOLIDE] the inhibition was “inactive”.

Same assay, conditions: BV-2, 24 h
In the case of `C=C1CC[C@@H]2[C@](C)(CO)[C@H](O)CC[C@@]2(C)[C@@H]1C/C=C1/C(=O)OC[C@H]1O` [ANDROGRAPHOLIDE], the inhibition at 20 µM is reported as 76.7%.

System: PC-12
Experiment: Neuroprotective activity against H2O2-induced toxicity in rat PC12 cells assessed as increase in cell viability at 20 uM pretreated for 24 hrs followed by H2O2 challenge and measured after 24 hrs by MTT assay
Type: functional, cell-based
Settings: not given
With `C[C@@]1(CO)[C@H](O)CC[C@@]2(C)C3CC(C4=CCOC4=O)O[C@]3(C)CC[C@H]12` (stereo not given in full) the Activity was “Active”.
For `C=C1CC[C@@H]2[C@](C)(CO)[C@H](O)CC[C@@]2(C)[C@@H]1C/C=C1\C=COC1=O`, the Activity was “inactive”.
For `C=C1CC[C@@H]2[C@](C)(CO)[C@H](O)CC[C@@]2(C)[C@@H]1CCC1C(=O)OC[C@H]1O` (stereo not given in full), the Activity was “inactive”.
For `C=C1CC[C@@H]2[C@](C)(COC(C)=O)[C@H](OC(C)=O)CC[C@@]2(C)[C@@H]1/C=C/C1=CCOC1=O`, the Activity was “inactive”.
For `C=C1CC[C@@H]2[C@](C)(COC(C)=O)[C@H](OC(C)=O)CC[C@@]2(C)[C@@H]1CCC1C(=O)OC[C@H]1OC(C)=O` (stereo not given in full), the Activity was “inactive”.
With `C=C1CC[C@@H]2[C@](C)(CO)[C@H](O)CC[C@@]2(C)[C@@H]1CCC1=CCOC1=O` [DEOXYANDROGRAPHOLIDE] the Activity was “inactive”.

System: PC-12
Experiment: Neuroprotective activity against H2O2-induced toxicity in rat PC12 cells assessed as increase in cell viability at 10 uM pretreated for 24 hrs followed by H2O2 challenge and measured after 24 hrs by MTT assay
Type: functional, cell-based
Settings: not given
For `C[C@@]1(CO)[C@H](O)CC[C@@]2(C)C3CC(C4=CCOC4=O)O[C@]3(C)CC[C@H]12` (stereo not given in full), the Activity was “Active”.

System: PC-12
Experiment: Neuroprotective activity against 6-OHDA -induced toxicity in rat PC12 cells assessed as increase in cell viability at 20 uM pretreated for 24 hrs followed by 6-OHDA challenge and measured after 24 hrs by MTT assay
Type: functional, cell-based
Settings: not given
In the case of `C[C@@]1(CO)[C@H](O)CC[C@@]2(C)C3CC(C4=CCOC4=O)O[C@]3(C)CC[C@H]12` (stereo not given in full), the Activity is reported as “Active”.
For `C=C1CC[C@@H]2[C@](C)(CO)[C@H](O)CC[C@@]2(C)[C@@H]1C/C=C1\C=COC1=O`, the Activity was “inactive”.
In the case of `C=C1CC[C@@H]2[C@](C)(CO)[C@H](O)CC[C@@]2(C)[C@@H]1CCC1C(=O)OC[C@H]1O` (stereo not given in full), the Activity is reported as “inactive”.
For `C=C1CC[C@@H]2[C@](C)(COC(C)=O)[C@H](OC(C)=O)CC[C@@]2(C)[C@@H]1/C=C/C1=CCOC1=O`, the Activity was “inactive”.
In the case of `C=C1CC[C@@H]2[C@](C)(COC(C)=O)[C@H](OC(C)=O)CC[C@@]2(C)[C@@H]1CCC1C(=O)OC[C@H]1OC(C)=O` (stereo not given in full), the Activity is reported as “inactive”.
For `C=C1CC[C@@H]2[C@](C)(CO)[C@H](O)CC[C@@]2(C)[C@@H]1CCC1=CCOC1=O` [DEOXYANDROGRAPHOLIDE], the Activity was “inactive”.
